This note sets out measurements from patent publication US11414395B2, “Heterocyclic compounds as modulators of mGluR7” (PRAGMA Therapeutics, priority 2017, dated 2022).

The target of the experiment is human mGluR7 (Homo sapiens (Human), UniProt Q14831). The experiment in a line: Inositol monophosphate production assay (IP1 assay), inhibition of L-AP4 response. In kind it is cell-based. To be noted: mean IC50 from at least two independent experiments; HEK293 cells transiently transfected with mGluR7, Gqtop and EAAC1; IP1 production vs EC80 L-AP4. The text has this: Inositol Monophosphate Production Assay (IP1 Assay):
HEK293 cells were transiently transfected with mGluR7 by electroporation and seeded in a poly-ornithine coated 96-well plate at the density of 150 000 cells/well. To allow the monitoring of receptor activity through measurements of inositol monophosphate (IP1) production, mGluR7 was transfected with a chimeric Gq/Gi protein (Gqtop). and was also co-transfected with EAAC1, a glutamate transporter, to avoid influence of extracellular glutamate. Cells were cultured in Dulbecco's Modified Eagle Medium (DMEM, Invitrogen, Cergy Pontoise, France), supplemented with 10% of Fetal Bovine Serum (FBS). Medium was changed by Glutamax™ (Invitrogen, Cergy Pontoise, France) to reduce extracellular glutamate concentration 3 hours before stimulation
IP1 production was determined using the IP-One HTRF kit (CisBio Bioassays), a competitive immunoassay using cryptate-labeled anti-IP1 antibody and d2-labeled IP, according to the manufacturer's recommendations. All points were realized in triplicate.
Data were analyzed with Prism 6 software (GraphPadSoftware, San Diego, Calif.). Typically, in each experiment, a four-parameter concentration-response curve equation was used to fit data and potency (IC50) is estimated as logarithms (log IC50). Data were calculated as % of the control mGluR7 agonist L-AP4 response, defined as the response that is generated upon addition of an EC80-equivalent concentration of L-AP4.
The Table 2 below represents the mean IC50 obtained from at least two independent experiments.

Some results are limits rather than exact numbers.

human mGluR7, sequence (Q14831 35-915): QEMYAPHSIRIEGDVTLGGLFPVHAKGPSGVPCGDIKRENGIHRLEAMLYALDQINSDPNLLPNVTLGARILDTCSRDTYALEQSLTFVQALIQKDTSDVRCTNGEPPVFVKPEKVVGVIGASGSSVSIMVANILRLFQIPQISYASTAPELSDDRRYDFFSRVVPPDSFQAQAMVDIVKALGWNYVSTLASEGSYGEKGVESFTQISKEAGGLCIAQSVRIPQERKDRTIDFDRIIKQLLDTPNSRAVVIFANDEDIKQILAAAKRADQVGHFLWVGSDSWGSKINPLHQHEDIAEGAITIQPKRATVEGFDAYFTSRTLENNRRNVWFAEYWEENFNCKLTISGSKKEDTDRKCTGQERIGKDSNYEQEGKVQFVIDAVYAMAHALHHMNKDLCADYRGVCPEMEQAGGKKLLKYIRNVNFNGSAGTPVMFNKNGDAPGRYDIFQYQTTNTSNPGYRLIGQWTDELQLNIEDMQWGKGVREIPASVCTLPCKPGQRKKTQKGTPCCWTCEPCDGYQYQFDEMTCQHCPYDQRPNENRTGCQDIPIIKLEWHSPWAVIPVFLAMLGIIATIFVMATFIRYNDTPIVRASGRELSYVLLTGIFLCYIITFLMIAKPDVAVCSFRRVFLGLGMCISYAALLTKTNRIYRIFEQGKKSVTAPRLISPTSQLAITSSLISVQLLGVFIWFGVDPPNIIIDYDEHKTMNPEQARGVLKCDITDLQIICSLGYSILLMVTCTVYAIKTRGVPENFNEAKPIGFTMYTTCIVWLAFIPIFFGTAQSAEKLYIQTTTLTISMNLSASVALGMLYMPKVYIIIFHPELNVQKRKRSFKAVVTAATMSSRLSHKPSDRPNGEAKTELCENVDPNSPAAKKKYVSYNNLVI

One may read the IC50 as the point on the concentration scale where inhibition reaches its midpoint. Lower therefore signals greater potency in that assay. Consider `COc1nc(-n2ncc3c(c2=O)CCC(c2ccc(C)cc2C)C3)ncc1C` (stereo not drawn) [Example 56, 6-(2,4-dimethylphenyl)-2-(4-methoxy-5-methylpyrimidin-2-yl)-5,6,7,8-tetrahydrophthalazin-1(2H)-one], for which the IC50 is below 500 nM.
Regarding `Cc1ccc(C2CCc3c(cnn(-c4ncc(CN5CCOCC5)cn4)c3=O)C2)c(C)c1` (stereo not drawn) [Example 57, 6-(2,4-dimethylphenyl)-2-(5-(morpholinomethyl)pyrimidin-2-yl)-5,6,7,8-tetrahydrophthalazin-1(2H)-one], the IC50 is below 500 nM.
In turn, `COc1ccccc1C1CCc2c(cnn(-c3ccccn3)c2=O)C1` (stereo not drawn) [Example 58, 6-(2-methoxyphenyl)-2-(pyridin-2-yl)-5,6,7,8-tetrahydrophthalazin-1(2H)-one] gave an IC50 below 500 nM.
Compound `CN(C)c1cccc(C2CCc3c(cnn(-c4ccccn4)c3=O)C2)c1` (stereo not drawn) [Example 59, 6-(3-(dimethylamino)phenyl)-2-(pyridin-2-yl)-5,6,7,8-tetrahydrophthalazin-1(2H)-one] registered an IC50 below 500 nM.
Under `COc1cccc(C2CCc3c(cnn(-c4ccccn4)c3=O)C2)c1C` (stereo not drawn) [Example 60, 6-(3-methoxy-2-methylphenyl)-2-(pyridin-2-yl)-5,6,7,8-tetrahydrophthalazin-1(2H)-one] stands below 500 nM.
Take `COc1ccc(C)c(C2CCc3c(cnn(-c4ccccn4)c3=O)C2)c1` (stereo not drawn) [Example 61, 6-(5-methoxy-2-methylphenyl)-2-(pyridin-2-yl)-5,6,7,8-tetrahydrophthalazin-1(2H)-one]: the half-inhibitory concentration (IC50) is below 500 nM.
For `O=c1c2c(cnn1-c1ccccn1)CC(c1cccc(C3CC3)c1)CC2` (stereo not drawn) [Example 63, 6-(3-cyclopropylphenyl)-2-(pyridin-2-yl)-5,6,7,8-tetrahydrophthalazin-1(2H)-one], the IC50 is 500 to 1000 nM.
In turn, `COc1cc(C2CCc3c(cnn(-c4ccccn4)c3=O)C2)ccc1C` (stereo not drawn) [Example 64, 6-(3-methoxy-4-methylphenyl)-2-(pyridin-2-yl)-5,6,7,8-tetrahydrophthalazin-1(2H)-one] came in with an IC50 of 1000 to 30000 nM.
The compound `CC(O)c1cccc(C2CCc3c(cnn(-c4ccccn4)c3=O)C2)c1` (stereo not drawn) [Example 65, 6-(3-(1-hydroxyethyl)phenyl)-2-(pyridin-2-yl)-5,6,7,8-tetrahydrophthalazin-1(2H)-one] came in with an IC50 of 500 to 1000 nM.
Compound `O=c1c2c(cnn1-c1ccccn1)CC(c1cccc(OC3CC3)c1)CC2` (stereo not drawn) [Example 66, 6-(3-cyclopropoxyphenyl)-2-(pyridin-2-yl)-5,6,7,8-tetrahydrophthalazin-1(2H)-one] registered an IC50 below 500 nM.
To `COc1cc(C)ccc1C1CCc2c(cnn(-c3ccccn3)c2=O)C1` (stereo not drawn) [Example 67, 6-(2-methoxy-4-methylphenyl)-2-(pyridin-2-yl)-5,6,7,8-tetrahydrophthalazin-1(2H)-one] belongs 500 to 1000 nM; to `COc1c(C)cccc1C1CCc2c(cnn(-c3ccccn3)c2=O)C1` (stereo not drawn) [Example 68, 6-(2-methoxy-3-methylphenyl)-2-(pyridin-2-yl)-5,6,7,8-tetrahydrophthalazin-1(2H)-one], 500 to 1000 nM; to `CN1CCc2c(C3CCc4c(cnn(-c5ccccn5)c4=O)C3)cccc21` (stereo not drawn) [Example 69, 6-(1-methylindolin-4-yl)-2-(pyridin-2-yl)-5,6,7,8-tetrahydrophthalazin-1(2H)-one], below 500 nM.
As for `COc1cc(C)ccc1C1CCc2c(cnn(-c3ncccn3)c2=O)C1` (stereo not drawn) [Example 70, 6-(2-methoxy-4-methylphenyl)-2-(pyrimidin-2-yl)-5,6,7,8-tetrahydrophthalazin-1(2H)-one], the IC50 was in the range of 500 to 1000 nM.
As for `COc1c(C)cccc1C1CCc2c(cnn(-c3ncccn3)c2=O)C1` (stereo not drawn) [Example 71, 6-(2-methoxy-3-methylphenyl)-2-(pyrimidin-2-yl)-5,6,7,8-tetrahydrophthalazin-1(2H)-one], the IC50 was in the range of 500 to 1000 nM.
In the case of `COc1cccc(C2CCc3c(cnn(-c4ncccn4)c3=O)C2)c1Cl` (stereo not drawn) [Example 72, 6-(2-chloro-3-methoxyphenyl)-2-(pyrimidin-2-yl)-5,6,7,8-tetrahydrophthalazin-1(2H)-one], the IC50 is below 500 nM.
In turn, `COc1ccc(C(F)(F)F)c(C2CCc3c(cnn(-c4ncccn4)c3=O)C2)c1` (stereo not drawn) [Example 73, 6-(5-methoxy-2-(trifluoromethyl)phenyl)-2-(pyrimidin-2-yl)-5,6,7,8-tetrahydrophthalazin-1(2H)-one] came in with an IC50 of 1000 to 30000 nM.
Under `COc1ccc(F)c(C2CCc3c(cnn(-c4ncccn4)c3=O)C2)c1` (stereo not drawn) [Example 74, 6-(2-fluoro-5-methoxyphenyl)-2-(pyrimidin-2-yl)-5,6,7,8-tetrahydrophthalazin-1(2H)-one] stands below 500 nM; under `COc1ccc(Cl)c(C2CCc3c(cnn(-c4ncccn4)c3=O)C2)c1` (stereo not drawn) [Example 75, 6-(2-chloro-5-methoxyphenyl)-2-(pyrimidin-2-yl)-5,6,7,8-tetrahydrophthalazin-1(2H)-one], below 500 nM; under `COc1ccc(C)cc1C1CCc2c(cnn(-c3ncccn3)c2=O)C1` (stereo not drawn) [Example 76, 6-(2-methoxy-5-methylphenyl)-2-(pyrimidin-2-yl)-5,6,7,8-tetrahydrophthalazin-1(2H)-one], below 500 nM.
`Cc1ccc(N2CCCC2)cc1C1CCc2c(cnn(-c3ncccn3)c2=O)C1` (stereo not drawn) [Example 77, 6-(2-methyl-5-(pyrrolidin-1-yl)phenyl)-2-(pyrimidin-2-yl)-5,6,7,8-tetrahydrophthalazin-1(2H)-one] showed a half-inhibitory concentration (IC50) below 500 nM.
Compound `CN1CCc2c(C3CCc4c(cnn(-c5ncccn5)c4=O)C3)cccc21` (stereo not drawn) [Example 78, 6-(1-methylindolin-4-yl)-2-(pyrimidin-2-yl)-5,6,7,8-tetrahydrophthalazin-1(2H)-one] gave an IC50 below 500 nM.
As for `COc1cccc(C2CCc3c(cnn(-c4ncccn4)c3=O)C2)c1F` (stereo not drawn) [Example 79, 6-(2-fluoro-3-methoxyphenyl)-2-(pyrimidin-2-yl)-5,6,7,8-tetrahydrophthalazin-1(2H)-one], the concentration for half-maximal inhibition (IC50) was below 500 nM.
Compound `COc1ccc(C)c(C2CCc3c(cnn(-c4ncccn4)c3=O)C2)c1` (stereo not drawn) [Example 80, 6-(5-methoxy-2-methylphenyl)-2-(pyrimidin-2-yl)-5,6,7,8-tetrahydrophthalazin-1(2H)-one] gave an IC50 below 500 nM.
`Cc1ccc(C)c(C2CCc3c(cnn(-c4ncccn4)c3=O)C2)c1` (stereo not drawn) [Example 81, 6-(2,5-dimethylphenyl)-2-(pyrimidin-2-yl)-5,6,7,8-tetrahydrophthalazin-1(2H)-one] returned an IC50 of 500 to 1000 nM.
Consider `Cc1cccc(C2CCc3c(cnn(-c4ncccn4)c3=O)C2)c1C` (stereo not drawn) [Example 82, 6-(2,3-dimethylphenyl)-2-(pyrimidin-2-yl)-5,6,7,8-tetrahydrophthalazin-1(2H)-one], for which the IC50 fell in the range of 500 to 1000 nM.
Take `COCc1cccc(C2CCc3c(cnn(-c4ncccn4)c3=O)C2)c1` (stereo not drawn) [Example 83, 6-(3-(methoxymethyl)phenyl)-2-(pyrimidin-2-yl)-5,6,7,8-tetrahydrophthalazin-1(2H)-one]: the IC50 was 500 to 1000 nM.
The compound `Cc1ccc(OC2CC2)cc1C1CCc2c(cnn(-c3ncccn3)c2=O)C1` (stereo not drawn) [Example 84, 6-(5-cyclopropoxy-2-methylphenyl)-2-(pyrimidin-2-yl)-5,6,7,8-tetrahydrophthalazin-1(2H)-one] displayed an IC50 below 500 nM.
`O=c1c2c(cnn1-c1ncccn1)CC(c1cccc(OC3CC3)c1)CC2` (stereo not drawn) [Example 85, 6-(3-cyclopropoxyphenyl)-2-(pyrimidin-2-yl)-5,6,7,8-tetrahydrophthalazin-1(2H)-one] yielded an IC50 below 500 nM.
In turn, `O=c1c2c(cnn1-c1ncccn1)CC(c1cccc(OC3CCCC3)c1)CC2` (stereo not drawn) [Example 86, 6-(3-(cyclopentyloxy)phenyl)-2-(pyrimidin-2-yl)-5,6,7,8-tetrahydrophthalazin-1(2H)-one] came in with an IC50 of 500 to 1000 nM.
In turn, `COc1ccc(C2CCc3c(cnn(-c4ncccn4)c3=O)C2)c(C)c1` (stereo not drawn) [Example 87, 6-(4-methoxy-2-methylphenyl)-2-(pyrimidin-2-yl)-5,6,7,8-tetrahydrophthalazin-1(2H)-one] came in with an IC50 below 500 nM.
`Cc1ccc2c(cnn2C)c1C1CCc2c(cnn(-c3ncccn3)c2=O)C1` (stereo not drawn) [Example 88, 6-(1,5-dimethyl-1H-indazol-4-yl)-2-(pyrimidin-2-yl)-5,6,7,8-tetrahydrophthalazin-1(2H)-one]: the IC50 was in the range of 1000 to 30000 nM.
As to `Cc1cc(C)c(C2CCc3c(cnn(-c4ncccn4)c3=O)C2)c(C)c1` (stereo not drawn) [Example 89, 6-mesityl-2-(pyrimidin-2-yl)-5,6,7,8-tetrahydrophthalazin-1(2H)-one], the IC50 was below 500 nM.
To `COc1ccc(F)c(C2CCc3c(cnn(-c4ncccn4)c3=O)C2)c1F` (stereo not drawn) [Example 90, 6-(2,6-difluoro-3-methoxyphenyl)-2-(pyrimidin-2-yl)-5,6,7,8-tetrahydrophthalazin-1(2H)-one] belongs below 500 nM; to `O=c1c2c(cnn1-c1ncccn1)CC(c1cccc(OC3CC3)c1Cl)CC2` (stereo not drawn) [Example 91, 6-(2-chloro-3-cyclopropoxyphenyl)-2-(pyrimidin-2-yl)-5,6,7,8-tetrahydrophthalazin-1(2H)-one], below 500 nM; to `O=c1c2c(cnn1-c1ncccn1)CC(c1cccc3c1CCN3C1CC1)CC2` (stereo not drawn) [Example 92, 6-(1-cyclopropylindolin-4-yl)-2-(pyrimidin-2-yl)-5,6,7,8-tetrahydrophthalazin-1(2H)-one], below 500 nM.
